Experimental data taken from patent US11129845B2, “Compositions and methods for the delivery of nucleic acids” (CASE WESTERN RESERVE UNIVERSITY, priority 2014, dated 2021).

What was measured:
[1] = tested on: Red blood cells (RBCs); experiment: pH-sensitive hemolytic activity of carrier library; type: cell-based, rat; details: all N/P ratios (5, 10, 15) and pHs (7.4, 6.5, 5.4) tested
Procedure: Hemolytic activity of each carrier was determined to verify the pH-sensitive membrane disruption capabilities of each carrier in the delivery system. Red blood cells (RBCs) extracted from rats were purchased from Innovative Research Inc. (Novi, Mich.) and diluted 1:50 in PBS solutions of pHs=5.4, 6.5, or 7.4. A total of 100 μL of nanoparticles were created at N/P ratios of 5, 10, 15 and then incubated with 100 μL of diluted RBCs at 37° C. for 2 h. Nanoparticles were formulated so that the final amine concentration for all the samples, after mixing with the RBCs, was 150 μM. Multiple pHs were tested to predict if the nanoparticles could disrupt membranes of the endosomal-lysosomal compartments (pH=5-6), without affecting the integrity of the outer cell membrane prior to endocytosis (pH=7.4). The absorbance of each test sample was measured on a SpectraMax spectrophotometer at a wavelength of 540 nm in order to determine the amount of hemoglobin released from the RBCs, due to membrane destabilization, relative to that achieved by a positive control treatment of 1% (v/v) Triton-X100 surfactant during the 2 hour incubation period.

[2] = Zeta-potential of siRNA-lipid complexes (Malvern Zetasizer); type: physicochemical
Procedure: (§1) The cationic lipid carriers are dissolved in ethanol at a stock concentration of 2.5 mM, while all siRNA is reconstituted in nuclease-free water at a 0.25 μg/μL (18.8 μM) concentration. Nanoparticles are formulated by mixing the carriers with siRNA for a period of 30 min in RNase-free phosphate buffer saline (PBS) at pre-specified N/P ratios (N=number of protonable amines in lipid, P=number of phosphate groups in the siRNA). In preparing the lipoplexes, proper dilutions were made such that the volume ratio of ethanol:water was kept constant at 1:20. Minimizing the amount of ethanol is important because it is effective in dissolving lipids, thus inhibiting particle formation. The diameters (as determined by dynamic light scattering) and zeta potentials of all nanoparticles were analyzed using a Malvern Zetasizer instrument at pH=7.4. siRNA encapsulation efficiency was calculated using a RiboGreen fluorescence-based assay from Invitrogen, designed specifically for detection of free RNA at […] wavelengths of 480 and 520 nm, respectively. Nanoparticles were created with all carriers in the library so that final siRNA concentrations were 1.6 μg/mL. A linear standard curve was utilized to calculate the encapsulation efficiencies from signal intensities measured by a SpectraMax microplate reader (Molecular Devices).

[3] = Nanoparticle diameter and polydispersity by dynamic light scattering (Malvern Zetasizer); type: physicochemical; details: for Nanoparticle diameter as measured by dynamic light scattering: siRNA-lipid complexes
Procedure: as §1

[4] = tested on: HT29 colon carcinoma cells; experiment: Cellular uptake of Alexa Fluor 488-siRNA via flow cytometry; type: cell-based, human; details: HT29, N/P=18, 4 h, 100 nM Alexa Fluor 488-siRNA
Procedure: Flow cytometry was used to investigate the cellular uptake of our delivery system in HT29 colon carcinoma cells. All carriers in the library were formulated into nanoparticles by condensing Alexa Fluor 488-labeled siRNA at the optimal N/P ratio determined by the above luciferase knockdown studies. Approximately 50,000 cancer cells were seeded in 6-well plates and allowed to grow until 30-50% confluence was reached. The cancer cells were transfected with a 100 nM siRNA dose in serum-free media. After 4 h, the transfection media were aspirated and the cells were washed twice with PBS. The cells were then trypsinized, collected, and fixed with 2% paraformaldehyde in PBS, prior to flow cytometric analysis.

[5] = tested on: luciferase reporter; experiment: Luciferase reporter silencing in HT29-Luc cells; type: cell-based, human; details: HT29, N/P 18, 72 h post-transfection
Procedure: Gene silencing efficiency was investigated in the HT29-Luc cell line by analyzing the expression of a luciferase reporter after anti-Luc siRNA therapy. To perform this study, cancer cells were seeded in 12 well plates at a density of 20,000 cells per well. Transfections were conducted in fresh serum-free media with 100 nM of siRNA when the cells were 25% confluent. The cells continued to grow in normal growth media for an additional 48 and 72 h, at which point they were rinsed twice with PBS and lysed for protein collection. The lysis buffer was a component of a Promega Luciferase Assay kit designed for measuring luciferase expression in the cell lysate. Equally important, the lysis buffer was compatible with the BCA protein assay so that we were able to normalize the luciferase expression in our samples with total protein content. For this silencing study, all synthesized carriers were evaluated at N/P ratios of 8, 10, 12, 14, 16, 18, and 20 to determine the best transfection formulation. Relative luciferase expression was determined for each trial using a SpectraMax luminometer upon the addition of a light-inducing luciferin substrate to the collected protein.
The RNAi capabilities of each carrier were investigated by analyzing the silencing of a luciferase (Luc) reporter in HT29 cancer cells after anti-Luc siRNA therapy. To perform this study, we seeded HT29-Luc cells in 12 well plates at a density of 20,000 cells per well. When 25% confluency, the cells were incubated with fresh serum-free transfection media containing nanoparticles at a dose of 100 nM siRNA. After 4 hours, the media was replaced with fresh complete growth media, so that the cells could continue to grow for an additional 48-72 hours, at which point they were lysed for protein collection. The lysis buffer was compatible with the BCA protein assay so that we could normalize luciferase expression in our samples. Negative controls included cells that were treated with 1) particles encapsulating non-specific siRNA, 2) naked anti-Luc siRNA, or 3) plain serum-free media. Luciferase expression was determined using a Spectra Max luminometer upon the addition of a light-inducing substrate to the collected protein. A similar knockdown experiment was also conducted in non-cancerous CHO cells expressing a GFP reporter. Flow cytometry was utilized to assess the silencing efficiency of the ECO and ECL delivery systems in this cell line. Cytotoxicity of the carriers 48 hours post-transfection was also investigated in both cell lines using an MTT colorimetric assay. […] These RNAi silencing levels surpassed those obtained with a Lipofectamine RNAiMax commercial transfection agent.

[6] = tested on: CHO-GFP cells; type: cell-based, Chinese hamster
Procedure: Cytotoxicity of the carriers was investigated using an MTT colorimetric assay measuring cellular metabolic activity (Invitrogen). The transfection procedure was identical to that presented for the reporter knockdown studies above, except for the fact that 96 well plates were utilized instead, and seeded with 10,000 cells per well. After transfection, the cells were allowed to grow for an additional 48 h. At that point, they were incubated with MTT for 4 h, followed by an additional 4 hour incubation with an SDS-HCl solution to dissolve any insoluble formazan crystals formed by the reduction of MTT by NAD(P)H-dependent enzymes in the cells. The absorbance of each sample was measured at 570 nm using a SpectraMax microplate reader. Cellular viability was calculated by averaging the signal intensities over three replicates and then normalizing the results relative to the negative control data.
The RNAi capabilities of each carrier were investigated by analyzing the silencing of a luciferase (Luc) reporter in HT29 cancer cells after anti-Luc siRNA therapy. To perform this study, we seeded HT29-Luc cells in 12 well plates at a density of 20,000 cells per well. […] Luciferase expression was determined using a Spectra Max luminometer upon the addition of a light-inducing substrate to the collected protein. […]

Structure (SMILES)	hemolytic activity relative to Triton X-100 [1]	Zeta-potential of siRNA-lipid complexes ([2]; pH = 7.4, N/P = 2) [mV]	Zeta-potential of siRNA-lipid complexes ([2]; pH = 7.4, N/P = 5) [mV]	Zeta-potential of siRNA-lipid complexes ([2]; pH = 7.4, N/P = 8) [mV]	Zeta-potential of siRNA-lipid complexes ([2]; pH = 7.4, N/P = 10) [mV]	Zeta-potential of siRNA-lipid complexes ([2]; pH = 7.4, N/P = 15) [mV]	Polydispersity of siRNA-lipid complexes ([3]; N/P = 2)	Polydispersity of siRNA-lipid complexes ([3]; N/P = 5)	Polydispersity of siRNA-lipid complexes ([3]; N/P = 8)	Polydispersity of siRNA-lipid complexes ([3]; N/P = 10)	Polydispersity of siRNA-lipid complexes ([3]; N/P = 15)	Nanoparticle diameter as measured by dynamic light scattering ([3]; N/P = 2) [nm]	Nanoparticle diameter as measured by dynamic light scattering ([3]; N/P = 5) [nm]	Nanoparticle diameter as measured by dynamic light scattering ([3]; N/P = 8) [nm]	Nanoparticle diameter as measured by dynamic light scattering ([3]; N/P = 10) [nm]	Nanoparticle diameter as measured by dynamic light scattering ([3]; N/P = 15) [nm]	cellular uptake, mean fluorescence intensity (MFI) [4]	luciferase knockdown (transfection efficiency) [5] [%]	relative cell viability (MTT) [6] [%]
CCCCCCCC/C=C\CCCCCCCC(=O)NC(CS)C(=O)NCCNC(=O)CCN(CCCNCCCCNCCCN)CCC(=O)NCCNC(=O)C(CS)NC(=O)CCCCCCC/C=C\CCCCCCCC (stereo not drawn) [SCO]	greatest hemolytic activity	−29.49 ± 1.33	26.60 ± 2.76	23.16 ± 1.88	23.29 ± 3.11	25.16 ± 3.75	0.339	0.236	0.19	0.158	0.176	407 ± 35	138 ± 28	63 ± 12	65 ± 11	53 ± 9	–	–	–
CCCCCCCC/C=C\CCCCCCCC(=O)NC(CS)C(=O)NC(Cc1cnc[nH]1)C(=O)NCCNC(=O)CCN(CCN)CCC(=O)NCCNC(=O)C(Cc1cnc[nH]1)NC(=O)C(CS)NC(=O)CCCCCCC/C=C\CCCCCCCC (stereo not drawn) [EHCO]	–	−23.14 ± 2.47	−14.09 ± 1.88	5.54 ± 1.37	18.80 ± 1.02	22.68 ± 2.08	0.276	0.195	0.165	0.122	0.161	480 ± 30	427 ± 25	380 ± 18	141 ± 15	51 ± 10	1957±208	46.4±5.8	–
CCCCCCCC/C=C\CCCCCCCC(=O)NC(CS)C(=O)NC(Cc1cnc[nH]1)C(=O)NCCNC(=O)CCN(CCCNCCCCNCCCN)CCC(=O)NCCNC(=O)C(Cc1cnc[nH]1)NC(=O)C(CS)NC(=O)CCCCCCC/C=C\CCCCCCCC (stereo not drawn) [SHCO]	–	−32.09 ± 1.65	−18.5 ± 2.43	18.32 ± 1.45	21.76 ± 2.31	23.94 ± 1.70	0.238	0.192	0.189	0.154	0.124	441 ± 32	238 ± 27	139 ± 17	151 ± 16	46 ± 8	3580±244	–	–
CCCCC/C=C\C/C=C\CCCCCCCC(=O)NC(CS)C(=O)NC(Cc1cnc[nH]1)C(=O)NCCNC(=O)CCN(CCN)CCC(=O)NCCNC(=O)C(Cc1cnc[nH]1)NC(=O)C(CS)NC(=O)CCCCCCC/C=C\C/C=C\CCCCC (stereo not drawn) [EHCLn]	–	−23.73 ± 2.26	−17.04 ± 1.32	0.49 ± 1.17	11.34 ± 1.67	24.92 ± 2.89	0.299	0.197	0.167	0.112	0.127	403 ± 35	379 ± 28	227 ± 20	130 ± 14	60 ± 11	–	–	–
CCCCC/C=C\C/C=C\CCCCCCCC(=O)NC(CS)C(=O)NC(Cc1cnc[nH]1)C(=O)NCCNC(=O)CCN(CCCNCCCCNCCCN)CCC(=O)NCCNC(=O)C(Cc1cnc[nH]1)NC(=O)C(CS)NC(=O)CCCCCCC/C=C\C/C=C\CCCCC (stereo not drawn) [SHCLn]	–	−32.09 ± 1.65	24.02 ± 1.07	26.35 ± 1.40	25.59 ± 2.22	23.80 ± 2.95	0.246	0.183	0.174	0.114	0.163	559 ± 38	223 ± 23	119 ± 13	132 ± 15	75 ± 10	4414±413	–	83.3±4.22
